From a melting point compilation (Tetko et al.; mined from patent text by program, amines drawn as free bases though some values may be those of a salt)

Compound	melting point
CCNc1c(C(F)(F)F)cc([N+](=O)[O-])c(NN(C)C)c1[N+](=O)[O-]	108 to 116 °C
COC12CC(CNC(=S)NC(C)=O)CN(C)C1Cc1c[nH]c3cccc2c13 (stereo not given)	212 to 214 °C
COc1cc(C(=O)O)c(Br)cc1C(=O)O	275 °C
Cc1ccc(SN(C)C(=O)Oc2cccc3c2OC(C)(C)C3)cc1	62 °C
N#Cn1nc(-c2ccccc2)c(=O)cc1Br	152 to 155 °C
Cc1cc(C=NO)cc(Oc2nc(Cl)nc(Cl)c2C(C)C)c1	185 to 187 °C
CCCCCCCCCCCCCCCCCC(=O)NN(C(=O)CCCCCCCCCCCCCCCCC)C(=O)CCC(=O)NN	248 to 252 °C
Cn1c(C(F)(F)F)cc(=O)n(-c2cc(OC=O)c(Cl)cc2F)c1=O	97 to 99 °C
CCN(CC)C(=S)SCc1ccccc1CSC(=S)N(CC)CC	78 to 80 °C
O=c1c2ccccc2nnn1CCCCl	69 °C
CN1Sc2sccc2C=C1CO	128 to 130 °C
Cc1ccc(N)c(Cl)c1C#N	117 to 119 °C
CN(C)c1ccc(NC(=O)N(CC2CCC(CN(C(=O)Nc3ccc(N(C)C)cc3)C3C4CC5CC(C4)CC3C5)CC2)C2C3CC4CC(C3)CC2C4)cc1 (stereo not given)	182 to 185 °C
O=C1CCc2cc(Br)c3c(c21)CCO3	149 to 150 °C
CC(C)C(C(N)=O)N(C)C(=O)OC(C)(C)C (stereo not given)	181 to 183 °C
COC(=O)c1cc(C)sc1S(N)(=O)=O	137 to 138 °C
CCOC(=O)C(CC(=O)c1cccc(C(F)(F)F)c1)(NC(C)=O)C(=O)OCC	91 to 92 °C

Other lines, results leading:

melting point	Compound
218 to 219 °C	CCNc1nc(-c2ccc(F)cc2)c(-c2ccc(S(C)(=O)=O)cc2)s1
181 °C	Cc1c(C(=O)O)cnn1-c1ccc(C(F)(F)F)cc1
202 to 203 °C	Cc1cccc2c1nc(-c1c(F)cccc1F)n2Cc1c(Cl)cccc1Cl
139 °C	CCn1nc(-c2ccccc2)c(C(C)=O)c(Nc2ccc(CN)cc2)c1=O
138 to 139 °C	CCC(=S)NC[C@H]1CN(c2ccc(N3CCOCC3)c(F)c2)C(=O)O1
184 °C	O=S1(=O)c2cccc3cccc(c23)N1CCN1CCC(Cc2c[nH]c3ccccc23)CC1
130 to 132 °C	Cc1cccc(C=CC(=O)c2ccc([N+](=O)[O-])cc2)c1
106 °C	COC(=O)c1ccc(C(=O)c2c(C)c(OCc3cccc(OC)c3)c3ccccn23)cc1
52 to 58 °C	Cc1cc(C)c(Nc2nc(N(C)C)ncc2S(=O)(=O)c2cccc(OCc3ccccc3)c2)c(C)c1
63 to 64 °C	COc1ccc(-c2ccc(C)nc2-c2ccc(OCCN3CCCC3)cc2)cc1
124 °C	Cc1c(CCCC(=O)O)cccc1C(=O)c1ccc(Cl)cc1
106 to 108 °C	C=C(Cn1ccnc1)c1cc(F)ccc1OCc1c(Cl)cccc1Cl
120 to 121 °C	Nc1cccc(-c2ccnc3c(Br)cnn23)c1
267 to 269 °C	CC(=O)N1CCN(c2ccc(Nc3nccc(-c4sc(N)nc4C)n3)cc2)CC1
194 to 197 °C	CCOC1=CC(=O)CC(c2ccccc2O)C1 (stereo not given)
182 to 184 °C	CN(C)c1[nH]c(=S)n(C2CCc3ccccc3C2)c1N(C)C (stereo not given)
208 to 211 °C	OCc1c(Cl)cc(Cl)cc1C(O)(Cn1ccnc1)c1ccc(Cl)cc1Cl (stereo not given)
210 to 212 °C	CN1CCC(Sc2cc3c(cc2Cl)[nH]c(=O)n3C)CC1
73 to 74 °C	O=Cc1c(Cl)cc(Cl)cc1-c1ccc(F)cc1
210 to 212 °C	O=c1c2ccccc2nc(-c2sc(Nc3ccccc3)nc2-c2ccccc2)n1-c1ccccc1Cl
74 to 75 °C	COC(=O)Cc1ccc(OCc2nc(-c3ccccc3)oc2C)cc1
152 to 153 °C	COc1ccc(S(=O)(=O)Nc2ccc(N(C)C)nc2Nc2ccccc2)cc1
102 to 103 °C	CC(=Cc1ccccc1)c1ccc2c(c1)C(C)(C)CC(O)C2(C)C (stereo not given)
